Results published in patent US20080098491A1, “MOUSE MODELS TO STUDY CACHEXIA” (ZOLTAN LABORATORIES LLC, priority 2006, published 2008).

Key:
MXT mouse mammary tumor [1] = assay: Cisplatin-treated MXT mouse mammary tumor model, CCDTHT (Example 10); format: in vivo; settings: every second day from day 7: cisplatin 3-mg/kg i.p., CCDTHT 4.6-mg/kg s.c., highly purified PALP 14-mg/kg s.c.
From the text: (§1) The B16 mouse melanoma and MXT mouse mammary tumors were developed in first generation hybrid BDF1 (C57 B1 female×DBA/2 male) adult female mice kept at specified pathogen free (SPF) hygienic level. These models were chosen for these experiments because these mice have the complete immune system, and both tumors grow very rapidly. To develop the tumors, B16 and MXT tumor tissue fragments of about 0.1-cm^3 were surgically implanted subcutaneously into the intrascapular region to develop the tumors. Each tumor fragment contained about 1-1.5×10^6 cells. The animals were kept in macrolon cages on ventilated rack at 22-24° C. (50-60% humidity) with lighting regimen of 12/12 h light/dark. The animals had free access to tap water and were fed with sterilized standard diet (Charles River VRF1, Germany) ad libitum. The animals were taken care of according to the “Guiding Principle for the care and use of Animals” based upon the Helsinki declaration and they were approved by the local ethical committee.
(§2) In case of both tumor models the tumor size was usually in the range of 0.2 to 0.5-g when treatments started 7-11 days after tumor implantation; the mice were selected so that in the same treatment group the difference in tumor size was no greater than 0.1 gram. In some experiments, the test proteins were suspended in physiological saline and injected in 50-μl volume subcutaneously in the vicinity of tumor (within 1-cm of tumor margin). In other experiments, the test proteins were dispersed in Vaselinum cholesteratum and used topically; 150-mg cream was applied on the tumor and the vicinity of tumor area (with about 0.5-cm of the tumor margin). The tumor volume was determined by using calipers; this technique is well known to one having ordinary skill in the art. Tumor volume was calculated according to the generally accepted formula: V=a^2×b×7r/6, where “a” and “b” mean the shortest and longest diameter, respectively, of the measured tumor.
The mouse MXT mammary tumor was developed as described in Example 3. In the first group, animals remained untreated during the whole observation period. In the second group, starting on the 7th day after tumor implantation, mice were administered 3-mg per 1-kg of cisplatin i.p. 9-times every second day. In the third group, starting on the 7th day after tumor implantation, mice were simultaneously administered 3-mg per 1-kg of cisplatin i.p. and 4.6-mg per 1-kg of CCDTHT s.c. In the fourth group, starting on the 7th day after tumor implantation, mice were simultaneously administered 3-mg per 1-kg of cisplatin i.p. as well as 4.6-mg per 1-kg of CCDTHT s.c. and 14-mg per 1-kg of highly purified PALP s.c. Each treatment was performed 9-times on every second day. Each group included 7 animals. The mean values for total weight, tumor weight and body weight (the difference between total and tumor weight) are shown in TABLE 8.

MXT mouse mammary tumor [2] = assay: Cisplatin-treated MXT mouse mammary tumor model, purified PALP, AT, holo-TF, apo-TF (Example 9, Experiment 2); format: in vivo; settings: every second day from day 7 (6-times): cisplatin 3-mg/kg i.p., proteins 12-mg/kg s.c.
From the text: as §1, §2
Experiment 2. The commercial PALP used in this model for Exp. 1 was composed of PALP (˜10%), TF (˜12%), AT (˜30%), albumin (˜35%) and the degradation products of TF (˜13%). […] In this experiment, it was determined whether the other two major proteins, i.e. TF and AT, present in the commercial PALP preparation in addition to PALP, also influence cisplatin-induced loss of body weight or not. The mouse MXT mammary tumor was developed as described in Example 3. In the first group, animals remained untreated during the whole observation period. In the second group, starting on the 7th day after tumor implantation, mice were administered 3-mg per 1-kg of cisplatin i.p. 6-times every second day. In the third group, starting on the 7th day after tumor implantation, mice were simultaneously administered 3-mg per 1-kg of cisplatin i.p. and 12-mg per 1-kg of purified PALP s.c. In the fourth group, starting on the 7th day after tumor implantation, mice were simultaneously administered 3-mg per 1-kg of cisplatin i.p. and 12-mg per 1-kg of highly purified AT s.c. In the fifth group, starting on the 7th day after tumor implantation, mice were simultaneously administered 3-mg per 1-kg of cisplatin i.p. and 12-mg per 1-kg of commercial holo-TF (h-TF, T 0665 in the Sigma catalog) s.c. In the sixth group, starting on the 7th day after tumor implantation, mice were simultaneously administered 3-mg per 1-kg of cisplatin i.p. and 12-mg per 1-kg of commercial apo-TF (a-TF, T 2036 in the Sigma catalog) s.c. Holo-TF contained 1,100-1,600 μg iron per gram protein while apo-TF was essentially iron-free. Each treatment with the proteins was also performed 6-times on every second day simultaneously with the cisplatin treatment. Each group included 7 animals. The mean values for total weight, tumor weight and body weight (the difference between total and tumor weight) are shown in gram in TABLE 7.

## N.N.[Cl][Pt][Cl] [Cisplatin, cisplatin]
MXT mouse mammary tumor [1]; day 7 after transplantation
  Body weight (total weight minus tumor weight): 21.95 g
  Total weight: 22.20 g
  Tumor weight: 0.25 g
MXT mouse mammary tumor [1]; day 9 after transplantation
  Body weight (total weight minus tumor weight): 22.45 g
  Total weight: 23.00 g
  Tumor weight: 0.55 g
MXT mouse mammary tumor [1]; day 11 after transplantation
  Body weight (total weight minus tumor weight): 21.75 g
  Total weight: 23.10 g
  Tumor weight: 1.35 g
MXT mouse mammary tumor [1]; day 15 after transplantation
  Body weight (total weight minus tumor weight): 20.25 g
  Total weight: 22.90 g
  Tumor weight: 2.65 g
MXT mouse mammary tumor [1]; day 17 after transplantation
  Body weight (total weight minus tumor weight): 17.85 g
  Total weight: 21.60 g
  Tumor weight: 3.75 g
MXT mouse mammary tumor [1]; day 21 after transplantation
  Body weight (total weight minus tumor weight): 15.95 g
  Total weight: 20.60 g
  Tumor weight: 4.65 g
MXT mouse mammary tumor [2]; day 7 after transplantation
  Body weight (total weight minus tumor weight): 22.25 g
  Total weight: 22.6 g
  Tumor weight: 0.35 g
MXT mouse mammary tumor [2]; day 11 after transplantation
  Body weight (total weight minus tumor weight): 21.25 g
  Total weight: 22.7 g
  Tumor weight: 1.45 g
MXT mouse mammary tumor [2]; day 13 after transplantation
  Body weight (total weight minus tumor weight): 20.05 g
  Total weight: 21.9 g
  Tumor weight: 1.85 g
MXT mouse mammary tumor [2]; day 15 after transplantation
  Body weight (total weight minus tumor weight): 18.1 g
  Total weight: 20.8 g
  Tumor weight: 2.7 g
MXT mouse mammary tumor [2]; day 18 after transplantation
  Body weight (total weight minus tumor weight): 16.8 g
  Total weight: 20.3 g
  Tumor weight: 3.5 g
